One experiment relates to prostate line LNCap. Kind of experiment: In vitro cell culture growth assay (MTS), LNCap. It is filed as cell-based, human. Particulars: LNCap cells, three days after drug treatment.
In the next experiment the test system is breast line MDA468. Kind of experiment: In vitro cell culture growth assay (MTS), MDA468. It is filed as cell-based, human. Particulars: MDA468 cells, three days after drug treatment. An outline of the steps:
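MDA468 or LNCap cells received inhibitors one day after plating and were grown for three days. Viable cell density read by MTS conversion, absorbance 490 nm, expressed as percent of control growth versus vehicle-treated cells on the same plate.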

Another experiment deals with PI3K (Homo sapiens, UniProt P42336). Nature of the experiment: Fluorescence polarization assay for PI3K.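 Further: PI3K kinase reaction on PIP2 with ATP, 30-60 min, product sensed by GST-GRP with red probe in fluorescence polarization (mP), controls without enzyme and at zero time.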 It is filed as biochemical. Particulars: PI3Kα; read-out: PI3Kα IC50.

pIC50: −log10 of the molar value.

By pIC50 is commonly meant the negative decadic logarithm of the IC50, by convention in mol/L.

PI3K, sequence (P42336 whole entry): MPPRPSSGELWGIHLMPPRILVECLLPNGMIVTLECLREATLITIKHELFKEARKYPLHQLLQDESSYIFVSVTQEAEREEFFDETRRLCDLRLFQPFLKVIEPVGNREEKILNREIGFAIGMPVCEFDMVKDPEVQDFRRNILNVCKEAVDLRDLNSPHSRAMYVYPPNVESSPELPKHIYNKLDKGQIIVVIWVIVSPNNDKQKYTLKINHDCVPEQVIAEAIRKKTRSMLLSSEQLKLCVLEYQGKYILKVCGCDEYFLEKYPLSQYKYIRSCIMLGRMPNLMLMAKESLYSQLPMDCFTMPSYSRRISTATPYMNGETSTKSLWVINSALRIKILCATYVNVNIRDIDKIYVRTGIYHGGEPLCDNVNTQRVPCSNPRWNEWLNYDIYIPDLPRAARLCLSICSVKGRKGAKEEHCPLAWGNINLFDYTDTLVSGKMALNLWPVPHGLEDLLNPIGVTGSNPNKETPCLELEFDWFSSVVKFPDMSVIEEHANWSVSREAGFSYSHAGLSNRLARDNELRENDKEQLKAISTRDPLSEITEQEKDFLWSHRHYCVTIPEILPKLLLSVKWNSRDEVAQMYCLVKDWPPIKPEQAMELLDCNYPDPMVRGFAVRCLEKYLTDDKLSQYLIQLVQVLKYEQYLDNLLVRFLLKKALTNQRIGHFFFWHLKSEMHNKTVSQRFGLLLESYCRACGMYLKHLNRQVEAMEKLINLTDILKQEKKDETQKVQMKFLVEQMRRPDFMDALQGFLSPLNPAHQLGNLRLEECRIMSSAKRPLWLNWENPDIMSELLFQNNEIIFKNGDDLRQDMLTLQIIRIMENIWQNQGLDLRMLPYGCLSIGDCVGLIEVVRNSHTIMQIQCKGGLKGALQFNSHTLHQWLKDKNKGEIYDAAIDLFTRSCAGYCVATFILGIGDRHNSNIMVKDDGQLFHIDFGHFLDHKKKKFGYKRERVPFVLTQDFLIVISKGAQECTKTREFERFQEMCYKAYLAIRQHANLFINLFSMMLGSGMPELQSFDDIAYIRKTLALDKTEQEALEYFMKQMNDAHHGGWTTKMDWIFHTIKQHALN
PI3K, sequence (P27986 whole entry partner): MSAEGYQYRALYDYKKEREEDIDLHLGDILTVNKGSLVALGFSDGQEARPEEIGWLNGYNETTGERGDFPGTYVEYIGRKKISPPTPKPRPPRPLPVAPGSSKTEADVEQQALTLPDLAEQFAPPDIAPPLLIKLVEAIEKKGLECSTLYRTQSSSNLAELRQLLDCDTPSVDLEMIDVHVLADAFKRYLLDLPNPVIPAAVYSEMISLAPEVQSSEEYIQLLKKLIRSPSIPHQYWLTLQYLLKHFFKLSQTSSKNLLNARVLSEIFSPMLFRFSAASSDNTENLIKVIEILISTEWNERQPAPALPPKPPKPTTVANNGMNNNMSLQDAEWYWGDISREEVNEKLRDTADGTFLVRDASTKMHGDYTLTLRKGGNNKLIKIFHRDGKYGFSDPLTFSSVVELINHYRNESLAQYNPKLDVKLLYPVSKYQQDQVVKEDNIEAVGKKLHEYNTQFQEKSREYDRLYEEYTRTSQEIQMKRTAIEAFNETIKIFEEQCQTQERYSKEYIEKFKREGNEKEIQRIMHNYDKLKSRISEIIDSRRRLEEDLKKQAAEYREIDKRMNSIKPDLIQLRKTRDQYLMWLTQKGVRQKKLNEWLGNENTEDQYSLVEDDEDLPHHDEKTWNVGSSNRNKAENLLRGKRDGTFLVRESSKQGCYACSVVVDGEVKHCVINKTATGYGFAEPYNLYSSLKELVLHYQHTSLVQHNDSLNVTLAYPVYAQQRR

Regarding `O=C(c1ccc(F)nc1)N1CCC(n2ncc3c(N4CCOCC4)nc(-c4ccc5[nH]ccc5c4)nc32)CC1` [Compound 201], the negative-log IC50 (pIC50) with prostate line LNCap (Homo sapiens, LNCaP, 72 h) was 6.13; in the experiment on breast line MDA468 (Homo sapiens, 72 h), 5.52; at PI3K, 5.69.

Take `CNC(=O)Nc1ccc(-c2nc(N3CCOCC3)c3cnn(C4CCN(C(=O)c5cccnc5)CC4)c3n2)cc1` [Compound 219]: the negative-log IC50 (pIC50) in the experiment on prostate line LNCap (Homo sapiens, LNCaP, 72 h) is 6.82; with breast line MDA468 (Homo sapiens, 72 h) it was 6.22; at PI3K, 6.26.

For `CC(=O)Nc1ccc(-c2nc(N3CCOCC3)c3cn[nH]c3n2)cc1` [Compound 926, N-[4-(4-morpholin-4-yl-1H-pyrazolo[3,4-d]pyrimidin-6-yl)phenyl]acetamide], the pIC50 is 5.43 in the experiment with prostate line LNCap, 5.07 in the experiment with breast line MDA468 and 6.35 at PI3K.

Consider `CN(C)CCCn1ncc2c(N3CCOCC3)nc(-c3ccc4[nH]ccc4c3)nc21` [Compound 160], for which the negative-log IC50 (pIC50) in the experiment with prostate line LNCap (Homo sapiens, LNCaP, 72 h) was 5.55; in the experiment on breast line MDA468 (Homo sapiens, 72 h), 4.82; at PI3K, 5.22.

Regarding `CNC(=O)Nc1ccc(-c2nc(N3CCOCC3)c3cnn(C4CCN(Cc5ccncc5)CC4)c3n2)cc1` [Compound 426, 1-methyl-3-(4-{4-morpholin-4-yl-1-[1-(pyridin-4-ylmethyl)piperidin-4-yl]-1H-pyrazolo[3,4-d]pyrimidin-6-yl}phenyl)urea], the pIC50 in the experiment with prostate line LNCap (Homo sapiens, LNCaP, 72 h) is 7.22; in the experiment on breast line MDA468 (Homo sapiens, 72 h), 6.15; on PI3K, 6.95.

For `CNC(=O)Nc1ccc(-c2nc(N3CCOCC3)c3cnn(C4CCN(CC(=O)OC)CC4)c3n2)cc1` [Compound 794, methyl [4-(6-{4-[(methylcarbamoyl)amino]phenyl}-4-morpholin-4-yl-1H-pyrazolo[3,4-d]pyrimidin-1-yl)piperidin-1-yl]acetate], the negative-log IC50 (pIC50) in the experiment on prostate line LNCap (Homo sapiens, LNCaP, 72 h) is 6.85; with breast line MDA468 (Homo sapiens, 72 h), 6.30; on PI3K, 6.90.

Consider `CN(C)CCCn1ncc2c(N3CCOCC3)nc(-c3cccc(O)c3)nc21` [Compound 163], for which the negative logarithm of the IC50 (pIC50) is 5.82 in the experiment with prostate line LNCap (Homo sapiens, LNCaP, 72 h); 5.22 in the experiment with breast line MDA468 (Homo sapiens, 72 h); 7.22 at PI3K.

With `O=C(c1ccccn1)N1CCC(n2ncc3c(N4CCOCC4)nc(-c4ccc5[nH]ccc5c4)nc32)CC1` [Example 51], the negative-log IC50 (pIC50) in the experiment on prostate line LNCap (Homo sapiens, LNCaP, 72 h) was 6.47; in the experiment on breast line MDA468 (Homo sapiens, 72 h), 5.77; on PI3K, 5.96.

For the compound “1-(4-{1-[1-(methoxymethyl)piperidin-4-yl]-4-morpholin-4-yl-1H-pyrazolo[3,4-d]pyrimidin-6-yl}phenyl)-3-methylurea [Compound 796]”, the figures for the negative logarithm of the IC50 (pIC50) in the experiment on prostate line LNCap, in the experiment on breast line MDA468 and on PI3K were 4.66, 4.52 and 5.81, respectively.

Regarding `O=C(Nc1ccc(-c2nc(N3CCOCC3)c3cnn(C4CCN(Cc5cccnc5)CC4)c3n2)cc1)Nc1ccccn1` [Compound 588, 1-(4-{4-morpholin-4-yl-1-[1-(pyridin-3-ylmethyl)piperidin-4-yl]-1H-pyrazolo[3,4-d]pyrimidin-6-yl}phenyl)-3-pyridin-2-ylurea], the negative-log IC50 (pIC50) in the experiment with prostate line LNCap (Homo sapiens, LNCaP, 72 h) is 6.48; with breast line MDA468 (Homo sapiens, 72 h) it was 5.74; on PI3K, 7.05.

As to `COC(=O)Nc1ccc(-c2nc(N3CCOC(C)C3)c3cnn(C4CCN(C(=O)OC)CC4)c3n2)cc1` (stereo not drawn) [Compound 840, methyl 4-[6-{4-[(methoxycarbonyl)amino]phenyl}-4-(2-methylmorpholin-4-yl)-1H-pyrazolo[3,4-d]pyrimidin-1-yl]piperidine-1-carboxylate], the negative-log IC50 (pIC50) in the experiment with prostate line LNCap (Homo sapiens, LNCaP, 72 h) is 5.49; in the experiment on breast line MDA468 (Homo sapiens, 72 h), 5.00; at PI3K, 5.45.

Consider `COC(=O)Nc1ccc(-c2nc(N3CCOCC3)c3cnn(C4CCN(Cc5ccccc5Cl)CC4)c3n2)cc1` [Compound 455, methyl (4-{1-[1-(2-chlorobenzyl)piperidin-4-yl]-4-morpholin-4-yl-1H-pyrazolo[3,4-d]pyrimidin-6-yl}phenyl)carbamate], for which the negative-log IC50 (pIC50) in the experiment on prostate line LNCap (Homo sapiens, LNCaP, 72 h) was 5.60; in the experiment with breast line MDA468 (Homo sapiens, 72 h) it was 5.28; on PI3K, 6.10.

For the compound `COC(=O)Nc1ccc(-c2nc(N3CCOCC3)c3cnn(C4CCN(C(=O)c5ccccn5)CC4)c3n2)cc1` [Compound 685, methyl (4-{4-morpholin-4-yl-1-[1-(pyridin-2-ylcarbonyl)piperidin-4-yl]-1H-pyrazolo[3,4-d]pyrimidin-6-yl}phenyl)carbamate], the negative-log IC50 (pIC50) was 6.70 in the experiment with prostate line LNCap, 6.24 in the experiment with breast line MDA468 and 5.72 at PI3K.

With `O=CNc1ccc(-c2nc(N3CCOCC3)c3cnn(-c4ccccc4)c3n2)cc1` [Compound 118], the pIC50 in the experiment on prostate line LNCap (Homo sapiens, LNCaP, 72 h) was 5.15; in the experiment on breast line MDA468 (Homo sapiens, 72 h), 4.70; on PI3K it was 6.91.

In the case of `CCOC(=O)N1CCC(n2ncc3c(N4CCOC[C@@H]4C)nc(-c4ccc(NC(=O)Nc5cccnc5)cc4)nc32)CC1` [Compound 897, ethyl 4-(4-[(3S)-3-methylmorpholin-4-yl]-6-{4-[(pyridin-3-ylcarbamoyl)amino]phenyl}-1H-pyrazolo[3,4-d]pyrimidin-1-yl)piperidine-1-carboxylate], the negative logarithm of the IC50 (pIC50) with prostate line LNCap (Homo sapiens, LNCaP, 72 h) is 7.40; in the experiment with breast line MDA468 (Homo sapiens, 72 h), 6.49; on PI3K, 7.55.

With `NCC(=O)Nc1ccc(-c2nc(N3CCOCC3)c3cn[nH]c3n2)cc1` [Compound 282, N-[4-(4-morpholin-4-yl-1H-pyrazolo[3,4-d]pyrimidin-6-yl)phenyl]glycinamide], the negative logarithm of the IC50 (pIC50) with prostate line LNCap (Homo sapiens, LNCaP, 72 h) is 5.05; in the experiment on breast line MDA468 (Homo sapiens, 72 h) it was 4.96; on PI3K it was 6.89.

Take `O=C(Nc1ccc(-c2nc(N3CCOCC3)c3cnn(C4CCN(Cc5cccnc5)CC4)c3n2)cc1)Nc1ccsc1` [Compound 375, 1-(4-{4-morpholin-4-yl-1-[1-(pyridin-3-ylmethyl)piperidin-4-yl]-1H-pyrazolo[3,4-d]pyrimidin-6-yl}phenyl)-3-(3-thienyl)urea]: the pIC50 is 7.47 in the experiment on prostate line LNCap (Homo sapiens, LNCaP, 72 h); 7.00 with breast line MDA468 (Homo sapiens, 72 h); 8.00 on PI3K.

As for `O=C(NCCO)Nc1ccc(-c2nc(N3CCOCC3)c3cnn(C4CCN(C(=O)c5cccnc5)CC4)c3n2)cc1` [Compound 549, 1-(2-hydroxyethyl)-3-(4-{4-morpholin-4-yl-1-[1-(pyridin-3-ylcarbonyl)piperidin-4-yl]-1H-pyrazolo[3,4-d]pyrimidin-6-yl}phenyl)urea], the pIC50 in the experiment with prostate line LNCap (Homo sapiens, LNCaP, 72 h) is 5.12; with breast line MDA468 (Homo sapiens, 72 h), 5.05; at PI3K it was 6.66.

In the case of `CC#CCOC(=O)N1CCC(n2ncc3c(N4CCOCC4)nc(-c4ccc(NC(=O)NC)cc4)nc32)CC1` [Compound 801, but-2-yn-1-yl 4-(6-{4-[(methylcarbamoyl)amino]phenyl}-4-morpholin-4-yl-1H-pyrazolo[3,4-d]pyrimidin-1-yl)piperidine-1-carboxylate], the pIC50 in the experiment with prostate line LNCap (Homo sapiens, LNCaP, 72 h) is 7.51; with breast line MDA468 (Homo sapiens, 72 h), 6.92; at PI3K it was 7.30.

Consider `O=S(=O)(c1ccccc1)N1CCC(n2ncc3c(N4CCOCC4)nc(-c4ccc5[nH]ccc5c4)nc32)CC1` [Compound 92], for which the negative logarithm of the IC50 (pIC50) in the experiment on prostate line LNCap (Homo sapiens, LNCaP, 72 h) was 5.10; with breast line MDA468 (Homo sapiens, 72 h) it was 5.60; on PI3K, 5.33.

As for `CCCCNC(=O)Nc1ccc(-c2nc(N3CCOCC3)c3cnn(C4CCN(Cc5ccccc5)CC4)c3n2)cc1` [Compound 185], the negative-log IC50 (pIC50) is 5.92 in the experiment on prostate line LNCap (Homo sapiens, LNCaP, 72 h); 5.41 in the experiment with breast line MDA468 (Homo sapiens, 72 h); 6.74 on PI3K.

Turning to `Cc1ccc(CN2CCC(n3ncc4c(N5CCOCC5)nc(-c5cccc(O)c5)nc43)CC2)s1` [Example 18], the pIC50 in the experiment with prostate line LNCap (Homo sapiens, LNCaP, 72 h) was 6.66; in the experiment with breast line MDA468 (Homo sapiens, 72 h) it was 5.89; at PI3K it was 7.66.

Take `O=C(Nc1ccccc1)Nc1ccc(-c2nc(N3CCOCC3)c3cnn(C4CCN(Cc5cccnc5)CC4)c3n2)cc1` [Example 339, 1-(4-{4-morpholin-4-yl-1-[1-(pyridin-3-ylmethyl)piperidin-4-yl]-1H-pyrazolo[3,4-d]pyrimidin-6-yl}phenyl)-3-phenylurea]: the pIC50 in the experiment on prostate line LNCap (Homo sapiens, LNCaP, 72 h) is 7.51; with breast line MDA468 (Homo sapiens, 72 h), 6.70; on PI3K, 7.96.

Turning to `CNC(=O)Nc1ccc(-c2nc(N3CCOCC3)c3cnn(C4CCN(C(=O)OCC(C)C)CC4)c3n2)cc1` [Compound 754, isobutyl 4-(6-{4-[(methylcarbamoyl)amino]phenyl}-4-morpholin-4-yl-1H-pyrazolo[3,4-d]pyrimidin-1-yl)piperidine-1-carboxylate], the negative-log IC50 (pIC50) with prostate line LNCap (Homo sapiens, LNCaP, 72 h) is 6.89; with breast line MDA468 (Homo sapiens, 72 h) it was 6.57; at PI3K, 7.14.

In the case of `NC(=O)Nc1ccc(-c2nc(N3CCOCC3)c3cnn(C4CCN(Cc5cccnc5)CC4)c3n2)cc1` [Example 313, 1-(4-{4-morpholin-4-yl-1-[1-(pyridin-3-ylmethyl)piperidin-4-yl]-1H-pyrazolo[3,4-d]pyrimidin-6-yl}phenyl)urea], the pIC50 in the experiment with prostate line LNCap (Homo sapiens, LNCaP, 72 h) is 6.70; with breast line MDA468 (Homo sapiens, 72 h), 6.70; on PI3K, 7.09.

As for `O=C(Nc1ccc(-c2nc(N3CCOCC3)c3cnn(C4CCN(C(=O)OCCF)CC4)c3n2)cc1)Nc1cccnc1` [Compound 879, 2-fluoroethyl 4-(4-morpholin-4-yl-6-{4-[(pyridin-3-ylcarbamoyl)amino]phenyl}-1H-pyrazolo[3,4-d]pyrimidin-1-yl)piperidine-1-carboxylate], the pIC50 in the experiment with prostate line LNCap (Homo sapiens, LNCaP, 72 h) was 8.41; in the experiment on breast line MDA468 (Homo sapiens, 72 h) it was 7.47; at PI3K, 7.92.

With `COC(=O)N1CCC(n2ncc3c(N4CCOCC4)nc(-c4ccc(NC(=O)Nc5ccc(CCNCCO)cc5)cc4)nc32)CC1` [Compound 921, methyl 4-[6-(4-{[(4-{2-[(2-hydroxyethyl)amino]ethyl}phenyl)carbamoyl]amino}phenyl)-4-morpholin-4-yl-1H-pyrazolo[3,4-d]pyrimidin-1-yl]piperidine-1-carboxylate], the pIC50 is 9.00 with prostate line LNCap (Homo sapiens, LNCaP, 72 h); 6.92 in the experiment with breast line MDA468 (Homo sapiens, 72 h); 7.92 at PI3K.

These data come from patent US20080234262A1 (Wyeth, priority 2007, published 2008).
